Values after ≈ are worked out from the molar mass of the structure shown.
Assays:
[1] = system: S. aureus ATCC 29213 (MSSA); experiment: Antibacterial MIC, broth microdilution (EUCAST); type: cell-based, Staphylococcus aureus; settings: for MIC: Staphylococcus aureus
Experimental: (§1) Minimum inhibitory concentrations (MICs) of compounds was determined by the broth microdilution assay in 96-well plates (Eppendorf, Hamburg, Germany) according to the EUCAST rules for antimicrobial susceptibility testing in full Mueller-Hinton broth (MH). The concentrations of compounds to be tested ranged from 1 to 2048 µg/mL. The MIC was determined as the lowest concentration of an antibiotic for which no visible bacterial growth could be observed after 24 h of incubation.

[2] = system: S. aureus MRSA clinical isolate; experiment: Antibacterial MIC, broth microdilution (EUCAST); type: cell-based, Staphylococcus aureus; settings: for MIC: Staphylococcus aureus, MRSA, 24 h, Mueller-Hinton broth
Experimental: as §1

P. aeruginosa ATCC 27853 = experiment: Antibacterial MIC, broth microdilution (EUCAST); type: cell-based, Pseudomonas aeruginosa; settings: for MIC: Pseudomonas aeruginosa, ATCC27853, 24 h, Mueller-Hinton broth
Experimental: as §1

[3] = system: influenza virus A/Puerto Rico/8/34 (H1N1); experiment: Antiviral cell protection assay in MDCK cells; type: cell-based; settings: H1N1, MDCK, 72 h
[4] = system: red blood cells from laboratory mice; experiment: Erythrotoxicity (hemolytic activity); type: cell-based; settings: 100 μM, 1, 3 and 5 h of incubation
Experimental: No significant hemolytic activity was detected at a concentration of 1 μM (Figure 3B).
(§2) To evaluate the erythrotoxicity, antioxidant and membrane-protective activity of the compounds, we used 0.5% (v/v) suspension of red blood cells from laboratory mice in phosphate-buffered saline (PBS, pH 7.4). The test substances were previously dissolved in ethanol. Erythrotoxicity (hemolytic activity) was evaluated by the degree of hemolysis of red blood cells 1–5 h after the introduction of solutions of the compounds. Membrane-protective and antioxidant activity was determined by the degree of inhibition of H2O2-induced hemolysis. For this purpose, 30 min after the erythrocyte suspension was added to the solutions of the test compounds, hemolysis was initiated with a solution of hydrogen peroxide (0.006%). Then, the reaction mixture was incubated in a thermostatic shaker Biosan ES-20 with slow stirring at 37 °C for 5 h. An aliquot was taken from the incubation medium every hour, centrifuged for 5 min (1600× g), and the degree of hemolysis was determined by the hemoglobin content in the supernatant on a ThermoSpectromic Genesys 20 spectrophotometer (Thermo Fisher Scientific, Waltham, MA, USA) at 524 nm. The percentage of hemolysis was calculated in relation to the complete hemolysis of the sample. Each experiment was designed with 4–8 replicates. Statistical data processing and charting were performed using the Microsoft Office Excel 2007 software package (Microsoft, Redmond, WA, USA). The data represent the mean ± SE.
Figure 3 Hemolytic activity of unsymmetrical disulfides at the concentration of 100 μM (A) and 1 μM (B) after 1, 3 and 5 h of incubation.

[5] = system: red blood cells from laboratory mice; experiment: Membrane-protective activity: H2O2-induced hemolysis of erythrocytes; type: cell-based; settings: 1 μM, 1–5 h
Experimental: The membrane-protective properties of the compounds were evaluated in the model of oxidative hemolysis of erythrocytes at a concentration of 1 μM in order to avoid the effect of hemolytic activity.
as §2
Figure 4 Effect of unsymmetrical disulfides and Trolox (T) at a concentration of 1 μM on the level of H2O2-induced hemolysis of erythrocytes after 1–5 h of incubation.

in vitro = settings: dog
[6] = Cytotoxicity, MTT on EBL cells; settings: bovine, EBL cells (embryonic bovine lung)
Experimental: (§3) Cytotoxicity of compounds was determined using the microtetrazolium test (MTT) on EBL cells. The cells were cultured in DMEM—Dulbecco’s Modified Eagle’s Medium (Sigma Aldrich, St. Louis, MO, USA) supplemented with 10% FBS, 2 mM L-glutamine, 100 µg/mL penicillin and 100 µg/mL streptomycin. Cells were seeded in 96-well plates with the density of 3000 cells per well and left overnight to allow for the attachment. Cells were next cultured at 37 °C and 5% CO2 in the presence of compounds of interest at various concentrations from 1.25 to 160 µg/mL. After 24 h of cultivation the cells were subjected to MTT-assay. The formazan was solubilized by DMSO and the optical density was measured on Tecan Infinite 200Pro at 570 nm. The concentration required to inhibit cellular dehydrogenase activity by 50% (CC50 value) was calculated by using GraphPad Prism 6.0 software (GraphPad software, San Diego, CA, USA).

[7] = system: EBL cells (embryonic bovine lung); experiment: Cytotoxicity, MTT on EBL cells
Experimental: as §3

[8] = system: Candida albicans 703 clinical isolate; experiment: Antifungal MIC, broth microdilution (CLSI M27-A3); settings: for MIC: Candida albicans, 24 h, read-out: MIC C. albicans 703 Clinical Isolate

SMILES | MIC ([1]; 24 h, Mueller-Hinton broth) | MIC [2] | activity against P. aeruginosa ATCC 27853, in words (P. aeruginosa ATCC 27853) | MIC (P. aeruginosa ATCC 27853) | IC50 [3] | hemolytic activity (erythrotoxicity), in words [4] | membrane-protective activity, in words [5] | CC50 (in vitro) | CC50 at 24 h [6] | cytotoxicity on EBL cells, in words [7] | MIC [8] | antibacterial activity against MSSA, in words [1] | antibacterial activity against MRSA, in words [2] | antifungal activity against Candida albicans 703, in words [8] | MIC S. aureus ATCC 29213 (MSSA) ([1]; 24 h, Mueller-Hinton broth) | melting point
CC1(C)[C@H]2CC[C@@H](CSSc3nc4ccccc4s3)[C@@H]1C2 [Compound 2a, 2-((((1S,2R,5S)-6,6-dimethylbicyclo [3.1.1]heptan-2-yl)methyl)disulfaneyl)benzo[d]thiazole] | 128 µg/mL (≈ 381 µM) | 128 µg/mL (≈ 381 µM) | repressed the growth | 64 µg/mL (≈ 191 µM) | 13 ± 3 µM | Low hemolytic activity | most active | 99 ± 5 µM | 104 µg/mL (≈ 311 µM) | least toxicity | 1020 µg/mL (≈ 3050 µM) | – | – | – | – | –
CC1(C)[C@H]2C[C@H](SSc3nc4ccccc4s3)[C@@H](CO)[C@@H]1C2 [Compound 3a, ((1S,2R,3S,5R)-3-(benzo[d]thiazol-2-yldisulfanyl)-6,6-dimethylbicyclo[3.1.1]heptan-2-yl)methanol] | 32 µg/mL (≈ 91 µM) | 32 µg/mL (≈ 91 µM) | repressed the growth | 64 µg/mL (≈ 182 µM) | 9 ± 3 µM | – | – | 30 ± 3 µM | 7.1 µg/mL (≈ 20.2 µM) | – | 1020 µg/mL (≈ 2910 µM) | – | – | – | – | –
CC1(C)[C@H]2C[C@H](O)[C@@H](CSSc3nc4ccccc4s3)[C@@H]1C2 [Compound 4a, (1S,2S,3S,5R)-2-((benzo[d]thiazol-2-yldisulfanyl)methyl)-6,6-dimethylbicyclo[3.1.1]heptan-3-ol] | 256 µg/mL (≈ 728 µM) | > 1020 µg/mL | – | 1020 µg/mL (≈ 2910 µM) | > 31 µM | – | most active | 68 ± 6 µM | – | – | > 1020 µg/mL | – | – | – | – | –
OC(Cn1cncn1)(Cn1cncn1)c1ccc(F)cc1F [Fluconazole, reference compound] | – | – | – | – | – | – | – | – | – | – | 16 µg/mL (≈ 52.2 µM) | – | – | – | – | –
Cc1cc(C)nc(SS[C@H]2C[C@H]3C[C@@H]([C@@H]2CO)C3(C)C)n1 [Compound 3b, ((1S,2R,3S,5R)-3-((4,6-dimethylpyrimidin-2-yl)disulfanyl)-6,6-dimethylbicyclo[3.1.1]heptan-2-yl)methanol] | 32 µg/mL (≈ 98.6 µM) | 32 µg/mL (≈ 98.6 µM) | – | 1020 µg/mL (≈ 3160 µM) | 16 ± 3 µM | – | most active | 83 ± 4 µM | 8.2 µg/mL (≈ 25.3 µM) | – | 512 µg/mL (≈ 1580 µM) | – | – | – | – | –
COC(=O)c1cccnc1SSC[C@@H]1CC[C@H]2C[C@@H]1C2(C)C [Compound 2c, Methyl 2-((((1S,2R,5S)-6,6-dimethylbicyclo[3.1.1]heptan-2-yl)methyl)disulfaneyl)pyridine-3-carboxylate] | > 1020 µg/mL | 64 µg/mL (≈ 190 µM) | – | 1020 µg/mL (≈ 3030 µM) | 19 ± 3 µM | – | most active | 104 ± 8 µM | 123 µg/mL (≈ 363 µM) | least toxicity | 1020 µg/mL (≈ 3030 µM) | inactive | showing activity | – | – | –
CC1(C)[C@H]2C[C@H](O)[C@@H](CSSc3ncccc3C(=O)O)[C@@H]1C2 [Compound 4d, 2-((((1S,2S,3S,5R)-3-hydroxy-6,6-dimethylbicyclo[3.1.1]heptan-2-yl)methyl)disulfanyl)nicotinic acid] | 512 µg/mL (≈ 1510 µM) | 64 µg/mL (≈ 189 µM) | – | 1020 µg/mL (≈ 3020 µM) | > 97 µM | – | most active | 178 ± 11 µM | 11.1 µg/mL (≈ 32.8 µM) | – | 16 µg/mL (≈ 47.1 µM) | – | – | active against yeast | – | –
NCC[C@H](O)C(=O)N[C@@H]1C[C@H](N)[C@@H](O[C@H]2O[C@H](CN)[C@@H](O)[C@H](O)[C@H]2O)[C@H](O)[C@H]1O[C@H]1O[C@H](CO)[C@@H](O)[C@H](N)[C@H]1O [Amikacin, reference compound] | 4 µg/mL (≈ 6.83 µM) | 4 µg/mL (≈ 6.83 µM) | – | 4 µg/mL (≈ 6.83 µM) | – | – | – | – | – | – | – | – | – | – | – | –
Cc1cc(C)nc(SSC[C@@H]2CC[C@H]3C[C@@H]2C3(C)C)n1 [Compound 2b, 2-((((1S,2R,5S)-6,6-dimethylbicyclo[3.1.1]heptan-2-yl)methyl)disulfanyl)-4,6-dimethylpyrimidine] | 16 µg/mL (≈ 51.9 µM) | 64 µg/mL (≈ 207 µM) | repressed the growth | 32 µg/mL (≈ 104 µM) | 13 ± 2 µM | – | most active | 35 ± 3 µM | 13.6 µg/mL (≈ 44.1 µM) | – | > 1020 µg/mL | – | – | – | – | –
CC1(C)[C@H]2CC[C@@H](CSSc3ncccc3C(=O)O)[C@@H]1C2 [Compound 2d, 2-((((1S,2R,5S)-6,6-dimethylbicyclo[3.1.1]heptan-2-yl)methyl)disulfanyl)nicotinic acid] | 16 µg/mL (≈ 49.5 µM) | 512 µg/mL (≈ 1580 µM) | – | 1020 µg/mL (≈ 3170 µM) | 5 ± 1 µM | – | – | 60 ± 4 µM | 18.1 µg/mL (≈ 56 µM) | – | 128 µg/mL (≈ 396 µM) | – | – | – | 32 µg/mL (≈ 98.9 µM) | –
Cc1cc(C)nc(SSC[C@@H]2[C@@H](O)C[C@H]3C[C@@H]2C3(C)C)n1 [Compound 4b, (1S,2S,3S,5R)-2-(((4,6-dimethylpyrimidin-2-yl)disulfanyl)methyl)-6,6-dimethylbicyclo[3.1.1]heptan-3-ol] | > 1020 µg/mL | > 1020 µg/mL | – | > 1020 µg/mL | 12 ± 3 µM | – | most active | 34 ± 2 µM | – | – | > 1020 µg/mL | – | – | – | – | –
COC(=O)c1cccnc1SS[C@H]1C[C@H](C)CC[C@H]1C(C)C [Compound 1c, Methyl 2-(((1S,2S,5R)-2-isopropyl-5-methylcyclohexyl)disulfanyl)pyridine-3-carboxylate] | 32 µg/mL (≈ 94.2 µM) | 32 µg/mL (≈ 94.2 µM) | – | 32 µg/mL (≈ 94.2 µM) | 12 ± 2 µM | – | – | 31 ± 2 µM | 18.3 µg/mL (≈ 53.9 µM) | – | 512 µg/mL (≈ 1510 µM) | – | – | – | – | 96 °C
CC(C)[C@@H]1CC[C@@H](C)C[C@@H]1SSc1ncccc1C(=O)O [Compound 1d, 2-(((1S,2S,5R)-2-isopropyl-5-methylcyclohexyl)disulfanyl)nicotinic acid] | 32 µg/mL (≈ 98.3 µM) | 64 µg/mL (≈ 197 µM) | – | 1020 µg/mL (≈ 3150 µM) | > 34 µM | – | – | 38 ± 3 µM | 47.8 µg/mL (≈ 147 µM) | – | 64 µg/mL (≈ 197 µM) | – | – | – | – | 160 to 161 °C (dec.)
CC(N)C12CC3CC(CC(C3)C1)C2 (stereo not shown) [Rimantadine, reference compound] | – | – | – | – | 57 ± 8 µM | – | – | 367 ± 28 µM | – | – | – | – | – | – | – | –

Source: paper PMC9416111, “Synthesis and Biological Activity of Unsymmetrical Monoterpenylhetaryl Disulfides” (Molecules, 2022)
